System: 217524-143-R1-J4-PDC spheroids with HUVEC/MSC, viability
Experiment: Anticancer human tumor 217524-143-R1-J4-PDC patient-derived pancreatic carcinoma cell line growth inhibition [CLK]
Conditions: for IC50: curve of first compound; for viability, T/C: stronger effect = lower value
Method in brief: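 Patient-derived tumor cells grown as complex spheroids with HUVEC endothelial cells and mesenchymal stem cells, treated with drug combinations. Concentrations descend in half-log steps from near clinical Cmax, or from 10 microM if Cmax unknown.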
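Also: spheroids exposed to agents for seven days before reading.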
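For viability, T/C in this document: 100% = DMSO vehicle control viability.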

NC(=O)C(=Cn1cnc(-c2cc(C(F)(F)F)cc(C(F)(F)F)c2)n1)c1cncnc1 + CNC(=O)c1ccc(Nc2nc(OC3CCCC3)c3c(-c4ccc5nc(C)oc5c4)c[nH]c3n2)c(OC)c1
IC50 (second compound 0.0316 µM): 16.6 nM
IC50 (second compound 0.1 µM): < 9.49 nM
IC50 (second compound 0.316 µM): < 9.49 nM
IC50 (second compound 1 µM): < 9.49 nM
IC50 (second compound 3.16 µM): < 9.49 nM
IC50 (second compound 10 µM): < 9.49 nM
viability, T/C (second compound 0.0316 µM, first compound 0.00949 µM): 60.5%
viability, T/C (second compound 0.0316 µM, first compound 0.03 µM): 38.8%
viability, T/C (second compound 0.0316 µM, first compound 0.0949 µM): 22.9%
viability, T/C (second compound 0.0316 µM, first compound 0.3 µM): 25.2%
viability, T/C (second compound 0.0316 µM, first compound 0.949 µM): 26.6%
viability, T/C (second compound 0.0316 µM, first compound 3 µM): 20.1%
viability, T/C (second compound 0.1 µM, first compound 0.00949 µM): 29.9%
viability, T/C (second compound 0.1 µM, first compound 0.03 µM): 28.1%
viability, T/C (second compound 0.1 µM, first compound 0.0949 µM): 21%
viability, T/C (second compound 0.1 µM, first compound 0.3 µM): 24.4%
viability, T/C (second compound 0.1 µM, first compound 0.949 µM): 23%
viability, T/C (second compound 0.1 µM, first compound 3 µM): 18.7%
viability, T/C (second compound 0.316 µM, first compound 0.00949 µM): 23.2%
viability, T/C (second compound 0.316 µM, first compound 0.03 µM): 18.9%
viability, T/C (second compound 0.316 µM, first compound 0.0949 µM): 16.9%
viability, T/C (second compound 0.316 µM, first compound 0.3 µM): 17.7%
viability, T/C (second compound 0.316 µM, first compound 0.949 µM): 18.9%
viability, T/C (second compound 0.316 µM, first compound 3 µM): 13.2%
viability, T/C (second compound 1 µM, first compound 0.00949 µM): 18.8%
viability, T/C (second compound 1 µM, first compound 0.03 µM): 12.9%
viability, T/C (second compound 1 µM, first compound 0.0949 µM): 11.7%
viability, T/C (second compound 1 µM, first compound 0.3 µM): 11.5%
viability, T/C (second compound 1 µM, first compound 0.949 µM): 10.9%
viability, T/C (second compound 1 µM, first compound 3 µM): 8.56%
viability, T/C (second compound 3.16 µM, first compound 0.00949 µM): 14.1%
viability, T/C (second compound 3.16 µM, first compound 0.03 µM): 12.6%
viability, T/C (second compound 3.16 µM, first compound 0.0949 µM): 9.81%
viability, T/C (second compound 3.16 µM, first compound 0.3 µM): 8.7%
viability, T/C (second compound 3.16 µM, first compound 0.949 µM): 6.96%
viability, T/C (second compound 3.16 µM, first compound 3 µM): 6.45%
viability, T/C (second compound 10 µM, first compound 0.00949 µM): 14.2%
viability, T/C (second compound 10 µM, first compound 0.03 µM): 12%
viability, T/C (second compound 10 µM, first compound 0.0949 µM): 9.72%
viability, T/C (second compound 10 µM, first compound 0.3 µM): 7.3%
viability, T/C (second compound 10 µM, first compound 0.949 µM): 6.09%
viability, T/C (second compound 10 µM, first compound 3 µM): 5.49%

Nc1ccccc1NC(=O)c1ccc(CNC(=O)OCc2cccnc2)cc1 + CNC(=O)c1ccc(Nc2nc(OC3CCCC3)c3c(-c4ccc5nc(C)oc5c4)c[nH]c3n2)c(OC)c1
IC50 (second compound 0.0316 µM): 4960 nM
IC50 (second compound 0.1 µM): 3850 nM
IC50 (second compound 0.316 µM): < 31.6 nM
IC50 (second compound 1 µM): < 31.6 nM
IC50 (second compound 3.16 µM): < 31.6 nM
IC50 (second compound 10 µM): < 31.6 nM
viability, T/C (second compound 0.0316 µM, first compound 0.0316 µM): 109%
viability, T/C (second compound 0.0316 µM, first compound 0.1 µM): 99%
viability, T/C (second compound 0.0316 µM, first compound 0.316 µM): 97.3%
viability, T/C (second compound 0.0316 µM, first compound 1 µM): 87.7%
viability, T/C (second compound 0.0316 µM, first compound 3.16 µM): 59.2%
viability, T/C (second compound 0.0316 µM, first compound 10 µM): 34%
viability, T/C (second compound 0.1 µM, first compound 0.0316 µM): 50.3%
viability, T/C (second compound 0.1 µM, first compound 0.1 µM): 50.2%
viability, T/C (second compound 0.1 µM, first compound 0.316 µM): 57.3%
viability, T/C (second compound 0.1 µM, first compound 1 µM): 62.1%
viability, T/C (second compound 0.1 µM, first compound 3.16 µM): 53%
viability, T/C (second compound 0.1 µM, first compound 10 µM): 32%
viability, T/C (second compound 0.316 µM, first compound 0.0316 µM): 37.9%
viability, T/C (second compound 0.316 µM, first compound 0.1 µM): 43%
viability, T/C (second compound 0.316 µM, first compound 0.316 µM): 47.8%
viability, T/C (second compound 0.316 µM, first compound 1 µM): 60.5%
viability, T/C (second compound 0.316 µM, first compound 3.16 µM): 53.2%
viability, T/C (second compound 0.316 µM, first compound 10 µM): 29.9%
viability, T/C (second compound 1 µM, first compound 0.0316 µM): 35.8%
viability, T/C (second compound 1 µM, first compound 0.1 µM): 35.9%
viability, T/C (second compound 1 µM, first compound 0.316 µM): 49.5%
viability, T/C (second compound 1 µM, first compound 1 µM): 46.2%
viability, T/C (second compound 1 µM, first compound 3.16 µM): 38.4%
viability, T/C (second compound 1 µM, first compound 10 µM): 22.3%
viability, T/C (second compound 3.16 µM, first compound 0.0316 µM): 33.1%
viability, T/C (second compound 3.16 µM, first compound 0.1 µM): 30.3%
viability, T/C (second compound 3.16 µM, first compound 0.316 µM): 34.6%
viability, T/C (second compound 3.16 µM, first compound 1 µM): 45%
viability, T/C (second compound 3.16 µM, first compound 3.16 µM): 40.3%
viability, T/C (second compound 3.16 µM, first compound 10 µM): 19.3%
viability, T/C (second compound 10 µM, first compound 0.0316 µM): 30.4%
viability, T/C (second compound 10 µM, first compound 0.1 µM): 25.9%
viability, T/C (second compound 10 µM, first compound 0.316 µM): 39.4%
viability, T/C (second compound 10 µM, first compound 1 µM): 38.6%
viability, T/C (second compound 10 µM, first compound 3.16 µM): 37.4%
viability, T/C (second compound 10 µM, first compound 10 µM): 13.3%

From PubChem BioAssay AID2060624 (Molecular Pharmacology Branch, DTP, NCI, 2025)
